{
  "source": "paper PMC6482847",
  "about": "(Molecular microbiology, 2019)",
  "molecular_target": "T1, FtsZAT (Agrobacterium fabrum, UniProt A9CIB1)",
  "T1 sequence (A9CIB1 1-583)": "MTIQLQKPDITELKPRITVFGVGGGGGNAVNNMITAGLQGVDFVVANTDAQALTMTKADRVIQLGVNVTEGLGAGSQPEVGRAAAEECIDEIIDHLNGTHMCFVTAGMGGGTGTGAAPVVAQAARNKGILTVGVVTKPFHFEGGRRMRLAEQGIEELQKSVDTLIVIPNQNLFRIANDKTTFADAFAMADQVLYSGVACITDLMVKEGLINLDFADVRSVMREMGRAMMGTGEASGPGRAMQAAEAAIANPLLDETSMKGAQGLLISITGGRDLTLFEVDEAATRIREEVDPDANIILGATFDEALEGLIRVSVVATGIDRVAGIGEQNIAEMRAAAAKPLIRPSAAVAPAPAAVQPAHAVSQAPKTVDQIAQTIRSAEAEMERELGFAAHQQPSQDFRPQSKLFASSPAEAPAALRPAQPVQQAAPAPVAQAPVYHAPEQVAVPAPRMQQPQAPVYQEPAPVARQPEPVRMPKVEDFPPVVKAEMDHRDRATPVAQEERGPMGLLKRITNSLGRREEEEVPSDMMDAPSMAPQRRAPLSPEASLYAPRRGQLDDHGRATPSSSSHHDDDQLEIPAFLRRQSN",
  "assay": "GTPase assay, inorganic phosphate release",
  "format": "biochemical",
  "details": "2 mM GTP, 8 µM FtsZAT, 2.5 mM MgCl2, 50 mM HEPES-KOH pH 7.2, 50 mM KCl, 0.1 mM EDTA",
  "data": [
    {"molecule": "Nc1nc2c(ncn2[C@@H]2O[C@H](COP(=O)(O)OP(=O)(O)OP(=O)(O)O)[C@@H](O)[C@H]2O)c(=O)[nH]1", "note": "[GTP]", "values": [
      {"measurement": "GTPase assay, inorganic phosphate release (colorimetric)", "value": "it rapidly releases inorganic phosphate suggesting that GTP is hydrolyzed"}
    ]}
  ]
}
